The nature of series [1]: Buffer capacity, pH and conductivity of buffers used on the APEX chip.
For series [2] the following is noted: cited from earlier work.
For series [3], the system named is btrRCA5 to ATA5 capture oligonucleotide. Briefly: Accumulation and electronic hybridization in test buffers. As to conditions: in words. As to the method:
Microelectronic Chips, Permeation Layer and Instrumentation—These have been described previously with the following exception. The permeation layer employed herein has an underlayer of agarose beneath the top streptavidin-containing agarose layer (approximately one micron in total thickness). To make the underlayer, […] glyoxal agarose (2%) was spun on at 2000 rpms for 20 sec prior to the application of the streptavidin-agarose layer. In brief, the 5580 series APEX chip used for these experiments consists of a 5×5 array of […] circular microelectrodes with […] microelectrodes at each corner of the array. Chips were mounted on a micromanipulator stage and the microelectrodes activated by a power supply and appropriately controlled relay switches. Fluorescently labeled oligonucleotides on the chip were visualized using oblique illumination with two 594 nm HeNe lasers and the images were quantified using either NIH Image or IPLab Spectrum software packages.
Accumulation and Hybridization—Two biotinylated capture oligonucleotides, ATA5 and ATA4 were electronically transported and localized at adjacent microelectrodes. The solution was removed and the chip washed 3-4× in test buffer. Buffers employed in these studies are listed in Table 3 and were utilized at the listed pH values and concentrations presented.
The L-isomers of amino acids were used, unless otherwise noted. The chip was equilibrated in test buffer for 5-10 min. Then fresh buffer containing 10 nM BODIPY-Texas Red labeled RCA5 (btrRCA5), an oligonucleotide complementary to ATA5 but not ATA4 (RS paper) was applied.
The […] microelectrodes were employed as cathodes and one microelectrode within the array used as the corresponding anode. Accumulation was assessed by sourcing a 500 nA constant current to individual microelectrodes for 30 sec and monitoring the accumulation of fluorescence at the positively-biased (anode) site in the microelectrode array. Signal arising from non-fluorescent sources (ie. thermal noise, etc.) was subtracted. Experiments examining the effect of different currents upon signal accumulation were conducted in a similar fashion except that the applied current varied from 100 nA to 1 mA. […] For the comparison between conductivities of various buffers, the data is presented as fold increase over initial fluorescence to account for chip-to-chip variation as well as laser illumination variations in signal levels. For other experiments, the data is presented as attomol product versus time, after converting^2 the observed fluorescence intensity to moles of labeled oligonucleotide.
Following accumulation at one microelectrode location, the buffer was removed and fresh buffer containing btrRCA5 applied. An adjacent microelectrode was then sourced in a similar fashion. Upon completion, the buffer was removed and the chip washed 5-7× with test buffer without btrRCA5. The pair of previously targeted microelectrodes were then illuminated and the fluorescence present at each site quantified. Control experiments utilized a bodipy-Texas Red labeled oligonucleotide complementary to ATA4 to verify the integrity and concentration of the ATA4 capture oligonucleotide. Percent hybridization efficiency was calculated as follows: (complementary oligonucleotide signal−noncomplementary signal)/(signal present immediately prior to the end of the applied current)×100.

Series [4] deals with btrRCA5 to ATA5. Briefly: Passive hybridization at different pHs.
Text: Passive Hybridization at Different pHs—Biotinylated ATA5 and ATA4 were electronically targeted to adjacent sites upon streptavidin/agarose coated microarrays. […] A parallel hybridization was done in 6×SSC. After this hybridization period, the chips were washed in 0.2×STE, 0.1% sodium dodecyl sulfate, as above and the remaining fluorescence at each site quantitated. Fluorescence values present at ATA4 sites were subtracted from adjacent ATA5 sites and the remaining fluorescence converted to attomol btrRCA5 specifically hybridized. Additional experiments repeated this methodology and also examined buffer adjusted with concentrated acetic acid (at the pI and at pH 6 and 5).
Series [5] relates to DNA. Nature of the series: DNA transport (accumulation) on the APEX chip. Conditions: in words, same field conditions.
In series [6] the target is streptavidin/biotin DNA probe (Streptomyces avidinii, UniProt P22629). Nature of the series: Streptavidin/biotin DNA probe capture affinity on the APEX chip. It is filed as binding.
Chain of streptavidin/biotin DNA probe (P22629 25-183, species assumed): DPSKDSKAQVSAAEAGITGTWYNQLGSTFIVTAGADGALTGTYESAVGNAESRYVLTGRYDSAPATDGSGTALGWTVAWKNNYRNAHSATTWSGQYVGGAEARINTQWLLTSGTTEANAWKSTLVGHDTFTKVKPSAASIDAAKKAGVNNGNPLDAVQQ
The test system of series [7] is target DNA to the specific capture DNA. Briefly: DNA hybridization sensitivity on the APEX chip. Conditions: normal DNA.
Series [8] relates to Reporter DNA to DNA1 or PNA1 capture. Nature of the series: Hybridization of phosphodiester-linked oligonucleotides versus PNA analogues. As to conditions: 200 nA versus 500 nA.
Series [9] concerns btrRCA5 to ATA5. Briefly: Passive hybridization versus electric field hybridization. Conditions: 50 mM.
Experimental: Passive Hybridization versus Electric Field Hybridization—ATA5 was electrically targeted to the first four columns of the microarray on streptavidin/agarose coated chips prepared as above, and ATA4 was targeted to the remaining column. For passive hybridization, either 5.0 nM or 0.5 nM btrRCA5 in 5×SSC (1×=0.15 M NaCl, 15 mM sodium citrate, pH 7.0) was applied for 1 min, then the chips were washed 6× in buffer and imaged. For the 3 min timepoint, fresh buffer containing btrRCA5 was applied and incubated for an additional 2 min to achieve 3 min cumulative incubation time. This approach was repeated for the remaining time points. […] Five sites, 4 with ATA5 previously attached and 1 with ATA4, were electronically targeted using 3.1 V total, (approximately 500 nA/site). […] In both passive and electric field mediated hybridization, the background signal present at the ATA4 sites was subtracted from the signal present at ATA5 sites.

The text below walks through data of patent US8114589B2, “Self-addressable self-assembling microelectronic integrated systems, component devices, mechanisms, methods, and procedures for molecular biological analysis and diagnostics” (Gamida For Life B.V., priority 1996, dated 2012).

Each structure is given as a SMILES string. Like-named read-outs stand apart in the source and are kept apart here.

For the molecule `N[C@@H](Cc1c[nH]cn1)C(=O)O` [Histidine], the conductivity in series [1] amounted to 212.0 μS; in [1] (hi purity), 172.0 μS. This molecule registered a PH in series [1] (NaPO4: 20 mM adjusted to pH 7.4) of 7.6. In addition, the “pH of the solution” value (200 nA) is over 6 and the “pH of the solution” value (500 nA) is over 5. Also, where the note is “not told”, the “pH above the surface of the permeation layer” value is over 5. For the same molecule, the pK1 result in series [2] (Table 2) is “pK1 - 1.8”. Further, the pK2 result in [2] (Table 2) is “pK2 - 6.0”. In addition, the pK3 result in series [2] (Table 2) is “pK3 - 9.0”. Also, the pI in series [2] is 7.47. Moreover, the “support of sequence specific electronic hybridization” value in series [3] was “demonstrated specific hybridization”. Also, the passive hybridization entry in series [4] (at its pI (pH 7.5), 50 mM) is listed as “does not facilitate hybridization”; in series [4] (pH 6.0 and 5.0, 50 mM), “accelerated hybridization”. For the same molecule, in series [5], the transport entry is recorded as “good transport”. Moreover, in series [6], the “SA-Biotin T12 Sensitivity” value was 3 × 10^6. For the same molecule, in series [7], the “Hybridization Sensitivity of DNA” value is 3×10^6 targets. In [8], the “DNA:DNA hybridization” value is given as “only occurs well at 500 nA”. Further, the “PNA:DNA hybridization” value in series [8] was “occurs at roughly equal efficiencies at either current”. The “hybridization in the absence of an applied electric field” value in series [9] is given as “No hybridization was observed”.
